Data published in PMC8318206 (ACS catalysis, 2020).
Values joined by “and” are separate entries in the source; they are usually repeats but may differ in a detail not shown here. Equal entries are not always repeated. “Also recorded” adds a separate entry of the source. Where two headings read alike, the source gives them in different places.

Tests used:
P450cam [1] = molecular target: T1, P450cam (Pseudomonas putida, UniProt P00183); details: reported previously; cited from earlier work
P450cam [2] = molecular target: T1, P450cam; details: cited from earlier work
P450cam [3] = molecular target: T1, P450cam; test: Catalytic activity: NADH oxidation with Pdx and PdR; assay type: biochemical; details: for Rate/Kd (specificity constant): NADH oxidation rate divided by Kd
Solubility in H2O = assay type: physicochemical; details: water
P450cam [4] = molecular target: T1, P450cam; test: Steady-state substrate binding titrations; details: for Reversal of the high-spin spectral change at high ligand concentration: camphor up to 2 mM
P450cam [5] = molecular target: T1, P450cam; test: Stopped-flow ligand binding kinetics; details: for Dominant binding mechanism: from dependence of eigenvalues on ligand and P450cam concentration; for Binding rate measurable by stopped-flow (ΔA390-A420): dead time 2 ms
P450cam [6] = molecular target: T1, P450cam; test: Estimation of koff for the P450cam·camphor complex by metyrapone trapping; assay type: binding
P450cam·Pdx complex = details: ref Hollingsworth et al., 46; cited from earlier work
P450tcu = details: 5-exo hydroxylation; cited from earlier work
[7] = 20 mM potassium MOPS (pH 7.4), 200 mM KCl
[8] = eigenvalues vs camphor concentration
[9] = fit to λ = kf + kr·S/(Kd + S), induced fit model

| Molecule | Kd (P450cam [1]) | Specificity constant (rate/Kd) (P450cam [2]; reported by others, ref 54) [M⁻¹ s⁻¹] | % relative to camphor (Rate/Kd) (P450cam [3]) [%] | Rate/Kd (specificity constant) (P450cam [3]) [M⁻¹ s⁻¹] | solubility (Solubility in H2O) [µM] | Kd (P450cam [4]) [µM] | Dominant binding mechanism (P450cam [5]) | Reversal of the high-spin spectral change at high ligand concentration (P450cam [4]; [7]) | Binding rate measurable by stopped-flow (ΔA390-A420) (P450cam [5]) | NADH coupling (P450cam [2]) [%] | further results |
| --- | --- | --- | --- | --- | --- | --- | --- | --- | --- | --- | --- |
| O=C1C2CC3CC(C2)CC1C3 [2-adamantanone] | 34 µM and 45 µM | 240000 | 19 | 1.3e+06 | ≥ 2000 | 2.7 | conformational selection | – | – | – | Oxidation rate (P450cam [2]; ref White et al., 54): ~ 1 s^−1; Oxidation rate (P450cam [2]; ref White et al., 54, listed as 2-Adamantone): 1 s⁻¹; Exponential of binding (P450cam [5]; 2 μM 2-adamantanone and 1 μM P450cam): 72 s⁻¹; Exponential of binding (P450cam [5]; 2 μM 2-adamantanone and 10 μM P450cam): 82 s⁻¹; kobs of binding (P450cam [5]; 2 μM P450cam and 4 μM 2-adamantanone): 78 ± 2 s⁻¹ |
| CC1(C)CC(=O)CC(C)(C)C1 [3,3,5,5-tetramethylcyclohexanone] | 3.5 µM | – | 0.6 | 40000 | ≥ 2000 | 5 | – | did reverse the spin state change at higher concentrations | changes could not be observed | – | – |
| CC(C)(C(=O)c1cccnc1)c1cccnc1 [metyrapone] | – | – | – | – | – | – | – | – | – | – | First-order rate of binding to ligand-free P450cam (k2) (P450cam [6]; 2 mM metyrapone (final)): 18.9 s⁻¹ |
| O=C1CC2CC[C@H]1C2 [norcamphor] | 350 µM | – | – | 70000 | ≥ 50000 | 250 | – | – | changes could not be observed | 15 | – |
| (+)-α-pinene | 1.1 µM | – | – | – | – | – | conformational selection | – | – | 23 | Specificity constant (rate/Kd) (P450cam [2]; based on NADH oxidation): 1.3e+06 M⁻¹ s⁻¹; Specificity constant (rate/Kd) (P450cam [2]; based on product formation): 300000 M⁻¹ s⁻¹; Oxidation rate (P450cam [2]; ref Bell et al., 37): 0.3 s⁻¹; Kd (P450cam [4]; 20 mM potassium MOPS (pH 7.4), 200 mM KCl, absence of Pdx, 23 °C): 3.4 µM; kobs of binding (P450cam [5]; 2 μM P450cam and 30 μM (+)-α-pinene): 81 ± 3 s⁻¹ |
| d-(+)-camphor | – | 340000 | 100 | 7e+06 | – | – | induced fit mechanism | no reversal of the high-spin spectral change was observed; also recorded: did not show any evidence for reversal | – | – | kcat (P450cam [2]; Km based on O2 as co-substrate): 55 to 66 s⁻¹; Rate of 5-exo hydroxylation (P450cam [2]): > 10 s⁻¹; Specificity constant (rate/Kd) (P450cam [2]; reported by others, ref 57): 1.6e+07 M⁻¹ s⁻¹; Rate on the basis of NADH oxidation (P450cam [2]; typically reported): 7 to 14 s⁻¹; koff (k-1) of the P450cam·camphor complex (P450cam [6]; 2 μM P450cam, 10 μM camphor mixed with 2 mM metyrapone, KinTek Explorer fit): 15 s⁻¹; kon in the minimal kinetic model (P450cam [6]; fit with koff = 15 s^−1 and Kd = […] μM): 1.5e+07 M⁻¹ s⁻¹; Increase of the Kd of a P450cam·Pdx complex in the presence of camphor (P450cam·Pdx complex): 2 fold; Eigenvalue λ of binding (P450cam [5]; 6 μM P450cam mixed with 2 μM camphor): 69 ± 2 s⁻¹; Intercept of linear regression of eigenvalues (koff, 2-state system) (P450cam [5]; [8]): 35 ± 4 s⁻¹; Slope of linear regression of eigenvalues (second-order kon, 2-state system) (P450cam [5]; [8]): 2.4 (± 0.3) × 10^6 M^−1 s^−1 and 2.4 (± 0.3) M^−1 s^−1; kf (kforward), forward rate constant following camphor binding (P450cam [5]; [9]): 112 s⁻¹ and 112 ± 49 s⁻¹; kr (kreverse), reverse rate constant (P450cam [5]; [9]): 28 s⁻¹ and 28 ± 7 s⁻¹; kcat (P450tcu): ~ 10 s^−1 |
